Source: US9345691B2, “Beta-lactam compounds for enhancing T cell-mediated immune responses” (STEM CELL MEDICINE LTD., priority 2011, dated 2016)

Assays:
CD4+ human T cells = experiment: Human Autoimmune and Inflammatory Response Gene Array, anti-CD3 stimulated T cells; type: cell-based; details: 120 min anti-CD3; for % increase by Amp.: ampicillin 50 μg/ml
Description: T cells were purified from the peripheral bloods of healthy human donors (Blood Bank, Sheba Medical center). The whole blood was incubated (20 min, 22° C.) with RosetteSep™ human T cell enrichment mixture (StemCell Technologies, Vancouver, Canada). The remaining unsedimented cells were then loaded onto lymphocyte separation medium (ICN Biomedicals, Irvine, Calif.), isolated by density centrifugation, and washed with PBS. […] In a second round of purification, CD3^+ T cells were labeled for selection with a magnetically coupled mAb against CD4 (Miltenyi Biotec, Auburn, Calif.).
Human CD4 T cells were isolated as described, and incubated in 24 well plates (Nunc), 4×10^6 cells/ml with plate bound anti-human CD3 (OKT3) at 2 μg/ml. The stimulation was performed in RPMI medium supplemented with 0.1% BSA. […] RNA was extracted from samples and used to prepare probes for gene array in accord with the manufacturer's instructions (SuperArray Bioscience, Frederick, Md.). Adequate labeling of the probes was tested before hybridization. Three healthy donors were tested in stimulation with cefuroxime. The membranes were analyzed online with the Image Data Acquisition and Expression Analysis (SuperArray Bioscience).
The Human Autoimmune and Inflammatory Response Gene Array (SuperArray Bioscience corporation, Frederick, Md., USA) was used for analysis of gene expression by the T cells. This array contains 367 genes including cytokines, chemokines and their receptors, transcription factors and signaling proteins. […] Analysis of the results was performed using the GEArray analysis program (www.SuperArray.com). […] To verify the results detected by the gene array study, a panel of six genes was designed and tested by real-time PCR: CCR4, ACVR2, JAK1, STAT4, TLR2 and NFKBIE. The cDNA that was used was prepared from the same RNA used for the gene array experiment.

[1] = tested on: encephalitogenic BP10 T-cell line; experiment: Adoptive EAE by BP10 line stimulated in vitro with test substance; type: in vivo, rat; details: BP10 line stimulated 3 days with MBP in presence of 50 μg/ml; 10^7 cells IP per rat
Text: The ability of a compound to enhance T cell activity may be determined, for example, using an in vivo assay testing the effect of a given compound on the severity of adoptive (passive) EAE, namely, EAE which is induced by the injection of activated encephalitogenic T cell line to the model animal. In order to test a compound, the encephalitogenic T cells are activated in the presence of the compound prior to injection. An exemplary procedure is described in the Examples section hereinbelow.
Antigen-specific T-cell lines were established from lymph node cells that had been stimulated with myelin basic protein (MBP; 10 μg/ml) for 3 days in stimulation medium as described below. Following stimulation, the T-cell blasts were isolated on Lympho-prep (Nycomed Pharma, Oslo, Norway) and seeded in propagation medium. Propagation medium was identical to stimulation medium without autologous serum, but supplemented with fetal calf serum 10% and T-cell growth factors from the supernatant of Con A stimulated spleen cells 10% (Mor et al. (1990) J Clin Invest, 85, 1594-1598). Animals were injected intra-peritoneally with 10^7 MBP-stimulated T cells, following 6-8 cycles of in vitro stimulations. It is known that MBP-reactive lines undergo a reduction in pathogenicity after 6 or more in vitro stimulations. In some experiments the BP10 line was stimulated with phorbol myristate acetate (PMA; 50 ng/ml) and ionomycin (500 ng/ml) for 3 days in stimulation medium, without antigen-presenting cells.
Active EAE was induced by subcutaneous injection of 25 μg guinea-pig MBP (GpMBP) in complete Freund's adjuvant (CFA). CFA was prepared by adding 4 mg/ml Mycobacterium tuberculosis H37Ra (Difco, Mich.) to incomplete Freund's adjuvant (IFA). Adoptive EAE was transferred by intra-peritoneal injection of guinea-pig MBP-activated cells of the BP10 line as described in Mor et al. (1993) J Clin Invest, 92, 2199-2206. […] Clinical scoring was: +1, paralysis of tail; +1.5, paresis of posterior paws and ataxia; +2, paraplegia; +3, paralysis extending to thoracic spine; +4, a moribund state.
Treatment with cefuroxime in vivo could affect many different host agents involved in EAE or AA as well as influencing the rats' bacterial flora. To test whether the antibiotic might directly modify the behavior of effector T cells, an encephalitogenic T-cell line was stimulated in the presence or absence of cefuroxime in vitro. The weakly encephalitogenic BP10 line was used, and was stimulated for 3 days with MBP in the presence or absence of cefuroxime (50 μg/ml). The activated T cells were then washed to remove the antibiotic, the T cells were injected intra-peritoneally into naïve recipient rats (10^7 per rat), and EAE was scored. The BP10 line at later stimulations was used, when its pathogenic potential is reduced, allowing to detect both suppression and enhancement of disease. […] To rule out antigen presenting cells (APC) as the target of the beta-lactam antibiotic, the encephalitogenic BP10 line was stimulated without APC using PMA (50 ng/ml) and Ionomycin (500 ng/ml) in the presence or absence of cefuroxime.

SMILES: CC1(C)S[C@@H]2[C@H](NC(=O)[C@H](N)c3ccccc3)C(=O)N2[C@H]1C(=O)O [ampicillin]
- number of the 57 cefuroxime-down-regulated genes up-regulated (CD4+ human T cells; 50 μg/ml): 56 genes
- % increase by Amp. (CD4+ human T cells; gene ACTB): +196%
- % increase by Amp. (CD4+ human T cells; gene ACVR1, A low expression): +53%
- % increase by Amp. (CD4+ human T cells; gene ACVR2, A low expression): +85%
- % increase by Amp. (CD4+ human T cells; gene CCL5): +25%
- % increase by Amp. (CD4+ human T cells; gene CCL11): +107%
- % increase by Amp. (CD4+ human T cells; gene CCR4): +31%
- % increase by Amp. (CD4+ human T cells; gene CCR6): +83%
- % increase by Amp. (CD4+ human T cells; gene CCR7): +43%
- % increase by Amp. (CD4+ human T cells; gene CD28): +175%
- % increase by Amp. (CD4+ human T cells; gene CD40LG): +67%
- % increase by Amp. (CD4+ human T cells; gene CREBBP): +49%
- % increase by Amp. (CD4+ human T cells; gene CXCL10): +25%
- % increase by Amp. (CD4+ human T cells; gene EGR3): −25%
- % increase by Amp. (CD4+ human T cells; gene GFI1): +10%
- % increase by Amp. (CD4+ human T cells; gene HRAS, A low expression): −12%
- % increase by Amp. (CD4+ human T cells; gene IL1B, A low expression): +64%
- % increase by Amp. (CD4+ human T cells; gene IL2RB): +93%
- % increase by Amp. (CD4+ human T cells; gene IL2RG, A low expression): +78%
- % increase by Amp. (CD4+ human T cells; gene IL9R): No change
- % increase by Amp. (CD4+ human T cells; gene IL16, A low expression): +14%
- % increase by Amp. (CD4+ human T cells; gene IRAK1): +171%
- % increase by Amp. (CD4+ human T cells; gene JAK1): +161%
- % increase by Amp. (CD4+ human T cells; gene JUN): +65%
- % increase by Amp. (CD4+ human T cells; gene LTA): +48.5%
- % increase by Amp. (CD4+ human T cells; gene MAP2K4): +150%
- % increase by Amp. (CD4+ human T cells; gene MAP3K1, A low expression): +63%
- % increase by Amp. (CD4+ human T cells; gene MAP3K2): +93%
- % increase by Amp. (CD4+ human T cells; gene MAP3K7): +124%
- % increase by Amp. (CD4+ human T cells; gene MAPK9): +46%
- % increase by Amp. (CD4+ human T cells; gene NFKB1): +31%
- % increase by Amp. (CD4+ human T cells; gene NFKB2): +195%
- % increase by Amp. (CD4+ human T cells; gene NFKBIE): +132%
- % increase by Amp. (CD4+ human T cells; gene NFKBIL1): +191%
- % increase by Amp. (CD4+ human T cells; gene PAK1): +111%
- % increase by Amp. (CD4+ human T cells; gene PIN1): +105%
- % increase by Amp. (CD4+ human T cells; gene RANBP5): +108%
- % increase by Amp. (CD4+ human T cells; gene REL): +132%
- % increase by Amp. (CD4+ human T cells; gene RFX5): +137%
- % increase by Amp. (CD4+ human T cells; gene RFXAP): +131%
- % increase by Amp. (CD4+ human T cells; gene SDF2): +71%
- % increase by Amp. (CD4+ human T cells; gene SELL): +124%
- % increase by Amp. (CD4+ human T cells; gene SMAD4): +85%
- % increase by Amp. (CD4+ human T cells; gene SMAD7, A low expression): +34%
- % increase by Amp. (CD4+ human T cells; gene SP3): +47%
- % increase by Amp. (CD4+ human T cells; gene SRF): +58%
- % increase by Amp. (CD4+ human T cells; gene STAT1): +85%
- % increase by Amp. (CD4+ human T cells; gene STAT4): +11%
- % increase by Amp. (CD4+ human T cells; gene STAT6): no change
- % increase by Amp. (CD4+ human T cells; gene TGFBR3): +139%
- % increase by Amp. (CD4+ human T cells; gene TGIF, A low expression): +72%
- % increase by Amp. (CD4+ human T cells; gene TLR2, A low expression): +419%
- % increase by Amp. (CD4+ human T cells; gene TNFRSF11A, A low expression): +81%
- % increase by Amp. (CD4+ human T cells; gene TNFα): +39%
- % increase by Amp. (CD4+ human T cells; gene TRAF5, A low expression): +47%
- % increase by Amp. (CD4+ human T cells; gene TRAF6, A low expression): +39%
- % increase by Amp. (CD4+ human T cells; gene YY1): +152%
- severity of adoptive EAE [1]: did not increase the severity of EAE
